Experiments:
[1] = target: T1, His-His-USP7 (aa208-560, |C315A|) (Homo sapiens, UniProt Q93009, C315A); experiment: Evaluation of the inhibition of USP7 by the Fluorescence Intensity (FLINT) readings; assay type: biochemical; conditions: 0.25 nM His-His-USP7, compound incubated 60 minutes at 30° C., 500 nM Ubiquitin-Rhodamine-110 substrate; 50% reduction in kinetic rate
T1 construct: His-His-USP7 (aa208-560, |C315A|); His-His (N)
Outline: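 IC50 reflects 50% reduction in kinetic rate of rhodamine-110 release (Ex485/Em535, reads every 3 min over 21 min), normalised to DMSO and no-enzyme controls, from an 11-point 4-parameter fit. Substrate is 500 nM Ub-Rh110, added after 60 min, 30 °C preincubation of compound with 0.25 nM USP7 aa208–560 C315A. Buffer is Bicine pH 8.0 with 10% DMSO.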

[2] = tested on: Z138 mantle cell lymphoma tumour cell lines; experiment: In vitro cytotoxicity, MTT assay; assay type: cell-based; conditions: Z138 cells exposed to the test compounds for 96 hours, cell viability vs DMSO treated cells
Description: The cytotoxicity studies were evaluated by MTT [3-(4,5-dimethylthiazol-2-yl)-2,5-diphenyltetrazolium bromide] assay and carried out on Z138 mantle cell lymphoma tumour cell lines. The cells are distributed onto microplates and exposed to the test compounds for 96 hours. MTT is then added for 4 hours and converted by NAD(P)H-dependent cellular oxidoreductase enzymes in formazan, which has a purple color. The viable cell number is proportional to the production of formuan salts and cell viability can be quantified by the absorbance of the solution at 540 nm with a speetrophotometer (Carmichael et al., Cancer Res. 1987, 47, 936-942).

T1 sequence (Q93009 208-560 C315A): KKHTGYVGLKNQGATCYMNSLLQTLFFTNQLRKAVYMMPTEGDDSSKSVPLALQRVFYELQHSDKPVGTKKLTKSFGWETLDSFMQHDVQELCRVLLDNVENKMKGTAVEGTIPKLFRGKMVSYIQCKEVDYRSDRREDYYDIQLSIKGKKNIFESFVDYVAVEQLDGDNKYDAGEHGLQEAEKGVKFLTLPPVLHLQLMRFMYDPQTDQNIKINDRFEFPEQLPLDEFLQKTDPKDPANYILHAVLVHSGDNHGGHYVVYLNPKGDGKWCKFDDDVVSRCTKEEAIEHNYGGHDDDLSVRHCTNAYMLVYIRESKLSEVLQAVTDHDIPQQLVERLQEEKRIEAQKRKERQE

In the case of `Nc1c(Oc2ccc(F)cc2)ncn(CC2(O)CCN(C(=O)[C@@H]3CC[C@](F)(C#Cc4ccccn4)C[C@H]3c3ccccc3)CC2)c1=O` [Example 132, 5-amino-3-[(1-{[(1R,2R4R)-4-fluoro-2-phenyl-4-[2-(pyridin-2-yl)ethynyl]cyclohexyl]carbonyl}-4-hydroxypiperidin-4-yl)methyl]-6-(4-fluorophenoxy)pyrimidin-4-one], the IC50 [1] is reported as 3.29 nM and the IC50 ([2]; Homo sapiens, Z-138, 96 h) is reported as 0.00214 µM.

Work on `Cc1cnc(C#CC2(F)CCC(C(=O)N3CCC(O)(Cn4cnc(Oc5ccc(F)cc5)c(N)c4=O)CC3)C(c3ccccc3)C2)cn1` [Example 150, 5-amino-3-({1-[1R,2R,4S)-4-fluoro-4-[2-(5-methylpyrazin-2-yl)ethynyl]-2-phenylcyclohexanecarbonyl]-4-hydroxypiperidin-4-yl}methyl)-6-(4-fluorophenoxy)-3,4-dihydropyrimidin-4-one] yielded an IC50 [1] of 37.7 nM and an IC50 ([2]; Homo sapiens, Z-138, 96 h) of 0.0258 µM.

Work on `CO[C@]1(C#Cc2cccc(N)n2)CC[C@@H](C(=O)N2CC[C@](O)(Cn3cnc(Oc4ccc(F)cc4)c(N)c3=O)C(F)(F)C2)[C@H](c2ccccc2)C1` [Example 164, 5-amino-3-{[(4S)-1-[(1R,2R,4R)-4-[2-(6-aminopyridin-2-yl)ethynyl]-4-methoxy-2-phenylcyclohexanecarbonyl]-3,3-difluoro-4-hydroxypiperidin-4-yl]methyl}-6-(4-fluorophenoxy)-3,4-dihydropyrimidin-4-one] yielded an IC50 [1] of 24.6 nM and an IC50 ([2]; Homo sapiens, Z-138, 96 h) of 0.0165 µM.

With `CO[C@]1(C#Cc2ncc(C)cn2)CC[C@@H](C(=O)N2CC[C@](O)(Cn3cnc(Oc4ccc(F)cc4)c(N)c3=O)C(F)(F)C2)[C@H](c2ccccc2)C1` [Example 174, 5-amino-3-{[(4S)-3,3-difluoro-4-hydroxy-1-[(1R,2R,4R)-4-methoxy-4-[2-(5-methylpyrimidin-2-yl)ethynyl]-2-phenylcyclohexanecarbonyl]piperidin-4-yl]methyl}-6-(4-fluorophenoxy)-3,4-dihydropyrimidin-4-one] the IC50 [1] was 67.7 nM and the IC50 ([2]; Homo sapiens, Z-138, 96 h) was 0.0174 µM.

For `CC#CC1(F)CC[C@@H](C(=O)N2CCC(O)(Cn3cnc(Oc4ccc(F)cc4)c(N)c3=O)CC2)[C@H](c2ccccc2)C1` (relative stereo) [Example 125, rel-5-amino-3-[(1-{[(1R,2R)-4-fluoro-2-phenyl-4-(prop-1-yn-1-yl)cyclohexyl]carbonyl}-4-hydroxypiperidin-4-yl)methyl]-6-(4-fluorophenoxy)pyrimidin-4-one], the IC50 [1] was 89.5 nM and the IC50 ([2]; Homo sapiens, Z-138, 96 h) was 0.0603 µM.

In the case of `Nc1c(Oc2ccc(F)cc2)ncn(CC2(O)CCN(C(=O)[C@@H]3CCC(F)(F)C[C@H]3c3ccccc3)CC2)c1=O` [Example 5, 5-amino-3-({1-[(1R,2R)-4,4-difluoro-2-phenylcyclohexane-1-carbonyl]-4-hydroxypiperidin-4-yl}methyl)-6-(4-fluorophenoxy)pyrimidin-4(3H)-one], the IC50 [1] is reported as 63.4 nM and the IC50 ([2]; Homo sapiens, Z-138, 96 h) is reported as 0.0435 µM.

`NCc1ccc(Oc2ncn(CC3(O)CCN(C(=O)[C@@H]4CCC(F)(F)C[C@H]4c4ccccc4)CC3)c(=O)c2N)cc1F` [Example 65, 5-amino-6-[4-(aminomethyl)-3-fluorophenoxy]-3-({1-[(1R,2R)-4,4-difluoro-2-phenylcyclohexane-1-carbonyl]-4-hydroxypiperidin-4-yl}methyl)pyrimidin-4(3H)-one] gave an IC50 [1] of 10 nM and an IC50 ([2]; Homo sapiens, Z-138, 96 h) of 0.386 µM.

With `Nc1c(Oc2cccc(O)c2)ncn(C[C@@]2(O)CCN(C(=O)[C@@H]3CCC(F)(F)C[C@H]3c3ccccc3)CC2(F)F)c1=O` [Example 104, 5-amino-3-({(4S)-1-[(1R,2R)-4,4-difluoro-2-phenylcyclohexane-1-carbonyl]-3,3-difluoro-4-hydroxypiperidin-4-yl}methyl)-6-(3-hydroxyphenoxy)pyrimidin-4(3H)-one] the IC50 [1] was 41 nM and the IC50 ([2]; Homo sapiens, Z-138, 96 h) was 0.014 µM.

For `Nc1c(Oc2ccc3c(c2)CC(O)C3)ncn(CC2(O)CCN(C(=O)[C@@H]3CCC(F)(F)C[C@H]3c3ccccc3)CC2)c1=O` (stereo partly drawn) [Example 48, 5-amino-3-({1-[(1R,2R)-4,4-difluoro-2-phenylcyclohexane-1-carbonyl]-4-hydroxypiperidin-4-yl}methyl)-6-[(2-hydroxy-2,3-dihydro-1H-inden-5-yl)oxy]pyrimidin-4(3H)-one], the IC50 [1] was 62 nM and the IC50 ([2]; Homo sapiens, Z-138, 96 h) was 0.072 µM.

`CO[C@]1(C#Cc2nccn2C)CC[C@@H](C(=O)N2CCC(O)(Cn3cnc(Oc4ccc(F)cc4)c(N)c3=O)CC2)[C@H](c2ccccc2)C1` [Example 159, 5-amino-6-(4-fluorophenoxy)-3-[(4-hydroxy-1-{[(1R,2R,4R)-4-methoxy-4-[2-(1-methylimidazol-2-yl)ethynyl]-2-phenytcyclohexyl]carbonyl}piperidin-4-yl)methyl]pyrimidin-4-one] gave an IC50 [1] of 28.2 nM and an IC50 ([2]; Homo sapiens, Z-138, 96 h) of 0.0168 µM.

For `Nc1c(Oc2ccc(CNC3CC3)cc2)ncn(CC2(O)CCN(C(=O)[C@@H]3CCC(F)(F)C[C@H]3c3ccccc3)CC2)c1=O` [Example 77], the IC50 [1] was 25 nM and the IC50 ([2]; Homo sapiens, Z-138, 96 h) was 0.156 µM.

With `Nc1c(Oc2ccc(F)cc2)ncn(CC2(O)CCN(C(=O)[C@@H]3CC[C@@](F)(Cc4ccccn4)C[C@H]3c3ccccc3)CC2)c1=O` (relative stereo) [Example 126, rel-5-amino-3-[(1-{[(1R,2R,4S)-4-fluoro-2-phenyl-4-(pyridin-2-ylmethyl)cyclohexyl]carbonyl)}-4-hydroxypiperidin-4-yl)methyl]-6-(4-fluorophenoxy)pyrimidin-4-one] the IC50 [1] was 79.5 nM and the IC50 ([2]; Homo sapiens, Z-138, 96 h) was 0.17 µM.

Compound `Nc1c(Oc2ccc(F)cc2)ncn(CC2(O)CCN(C(=O)[C@@H]3CC=C(C#Cc4ncccn4)C[C@H]3c3ccccc3)CC2)c1=O` [Example 143, 5-amino-6-(4-fluorophenoxy)-3-[(4-hydroxy-1-{[(1R,6R)-6-phenyl-4-[2-(pyrimidin-2-yl)ethynyl]cyclohex-3-en-1-yl]carbonyl}piperidin-4-yl)methyl]pyrimidin-4-one] has an IC50 [1] of 56.5 nM and an IC50 ([2]; Homo sapiens, Z-138, 96 h) of 0.0787 µM.

Work on `Nc1c(Oc2cccc(CO)c2)ncn(CC2(O)CCN(C(=O)[C@@H]3CCC(F)(F)C[C@H]3c3ccccc3)CC2)c1=O` [Example 28, 5-amino-3-({1-[(1R,2R)-4,4-difluoro-2-phenylcyclohexane-1-carbonyl]-4-hydroxypiperidin-4-yl}methyl)-6-[3-(hydroxymethyl)phenoxy]pyrimidin-4(3H)-one] yielded an IC50 [1] of 53 nM and an IC50 ([2]; Homo sapiens, Z-138, 96 h) of 0.052 µM.

With `COc1ccc(Oc2ncn(CC3(O)CCN(C(=O)[C@@H]4CCC(F)(F)C[C@H]4c4ccccc4)CC3)c(=O)c2N)cc1` [Example 3, 5-amino-3-({1-[(1R,2R)-4,4-difluoro-2-phenylcyclohexane-1-carbonyl]-4-hydroxypiperidin-4-yl}methyl)-6-(4-methoxyphenoxy)pyrimidin-4(3H)-one] the IC50 [1] was 80.2 nM and the IC50 ([2]; Homo sapiens, Z-138, 96 h) was 0.0595 µM.

Compound `Nc1c(Oc2ccc3c(c2)CNC3)ncn(CC2(O)CCN(C(=O)[C@@H]3CCC(F)(F)C[C@H]3c3ccccc3)CC2)c1=O` [Example 32, 5-amino-3-({1-[(1R,2R)-4,4-difluoro-2-phenylcyclohexane-1-carbonyl]-4-hydroxypiperidin-4-yl}methyl)-6-[(2,3-dihydro-1H-isoindol-5-yl)oxy]pyrimidin-4(3H)-one] has an IC50 [1] of 32 nM and an IC50 ([2]; Homo sapiens, Z-138, 96 h) of 0.896 µM.

Compound `CO[C@]1(C#Cc2cccnn2)CC[C@@H](C(=O)N2CCC(O)(Cn3cnc(Oc4ccc(F)cc4)c(N)c3=O)CC2)[C@H](c2ccccc2)C1` [Example 146, 5-amino-6-(4-fluorophenoxy)-3-[(4-hydroxy-{[(1R,2R,4R)-4-methoxy-2-phenyl-4-[2-(pyridazin-3-yl)ethynyl]cyclohexyl]carbonyl}piperidin-4-yl)methyl]pyrimidin-4-one] has an IC50 [1] of 18.5 nM and an IC50 [2] of 0.00597 µM.

Work on `CO[C@@H]1CC[C@@](C#Cc2cc(C)cnn2)(C(=O)N2CC[C@](O)(Cn3cnc(Oc4ccc(F)cc4)c(N)c3=O)C(F)(F)C2)[C@@H](c2ccccc2)C1` [Example 169, 5-amino-3-{[(4S)-3,3-difluoro-4-hydroxy-1-[(1R,2R,4R)-4-methoxy-1-[2-(5-methylpyridazin-3-yl)ethynyl]-2-phenylcyclohexanecarbonyl]piperidin-4-yl]methyl}-6-(4-fluorophenoxy)-3,4-dihydropyrimidin-4-one] yielded an IC50 [1] of 8.8 nM and an IC50 ([2]; Homo sapiens, Z-138, 96 h) of 0.00218 µM.

With `Nc1c(Oc2ccc(F)cc2)ncn(CC2(O)CCN(C(=O)[C@@H]3CC[C@@](F)(C#Cc4ncccn4)C[C@H]3c3ccccc3)CC2)c1=O` [Example 142, 5-amino-3-[(1-{[(1R,2R,4S)-4-fluoro-2-phenyl-4-[2-(pyrimidin-2-yl)ethynyl]cyclohexyl]carbonyl}-4-hydroxypiperidin-4-yl)methyl]-6-(4-fluorophenoxy)pyrimidin-4-one] the IC50 [1] was 58.8 nM and the IC50 ([2]; Homo sapiens, Z-138, 96 h) was 0.0176 µM.

Compound `Nc1c(Oc2ccc(OCCO)cc2)ncn(CC2(O)CCN(C(=O)[C@@H]3CCC(F)(F)C[C@H]3c3ccccc3)CC2)c1=O` [Example 33, 5-amino-3-({1-[(1R,2R)-4,4-difluoro-2-phenylcyclohexane-1-carbonyl]-4-hydroxypiperidin-4-yl}methyl)-6-[4-(2-hydroxyethoxy)phenoxy]pyrimidin-4(3H)-one] has an IC50 [1] of 45.9 nM and an IC50 ([2]; Homo sapiens, Z-138, 96 h) of 0.0646 µM.

— patent US20210221785A1, “AMINO-PYRIMIDONYL DERIVATIVES, A PROCESS FOR THEIR PREPARATION AND PHARMACEUTICAL COMPOSITIONS CONTAINING THEM” (LES LABORATOIRES SERVIER, priority 2018, published 2021)
